The numbers were not newly measured in US20240238452A1, “STAINING AGENT FOR GASTROINTESTINAL MUCOSA AND PREPARATION METHOD THEREFOR” (BEIJING COMPONT MEDICAL DEVICES CO., LTD., priority 2023, published 2024), which cites them from elsewhere.

For data set [1] the following is noted: International Journal of Toxicology 2010.
The conditions of data set [2]: EFSA report 2009.

In the case of `Cc1ccc(Nc2ccc(O)c3c2C(=O)c2ccccc2C3=O)c(S(=O)(=O)[O-])c1.[Na+]` [acid violet 43], the “safety: acute oral, short-term skin, subchronic skin, heredity and other aspects” value in data set [1] was “no abnormal report”.
Take `COc1cc(S(=O)(=O)[O-])c(C)cc1N=Nc1c(O)ccc2cc(S(=O)(=O)[O-])ccc12.[Na+].[Na+]` [allure red]: the “allowable daily intake (ADI)” value in data set [2] is 7 mg/kg·bw/day.
Regarding `O=C1/C(=C2\Nc3ccc(S(=O)(=O)[O-])cc3C2=O)Nc2ccc(S(=O)(=O)[O-])cc21.[Na+].[Na+]` [indigo carmine, reference compound], the “allowable daily intake (ADI)” value in data set [2] is reported as 5 mg/kg·bw/day.
